From US20020026053A1, “Novel 3-(substituted) -2- indolinones compounds and use thereof as inhibitors of protein kinase activity” (priority 1997, published 2002)

Target: T1, Met receptor (EGFR/Met chimeric cells, EMR) (Homo sapiens, UniProt P08581)
T1 construct: expressed in transfected cells; the other entry of the earlier key: EGFR (P00533, Epidermal growth factor receptor)
Assay: Met Autophosphorylation Assay
Type: biochemical
Conditions: protocol P.130
Summary of the method: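 Transiently transfected EGFR/Met chimeric (EMR) cells were lysed in HNTG with 1 mM PMSF. Met was captured on plates coated with goat anti-rabbit IgG, then rabbit anti-Met (C-28), using 90 μg lysate/100 μl for 60 min at room temperature. Phosphotyrosine was read by ELISA.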

T1 sequence (P08581 with tags, fused parts or gaps): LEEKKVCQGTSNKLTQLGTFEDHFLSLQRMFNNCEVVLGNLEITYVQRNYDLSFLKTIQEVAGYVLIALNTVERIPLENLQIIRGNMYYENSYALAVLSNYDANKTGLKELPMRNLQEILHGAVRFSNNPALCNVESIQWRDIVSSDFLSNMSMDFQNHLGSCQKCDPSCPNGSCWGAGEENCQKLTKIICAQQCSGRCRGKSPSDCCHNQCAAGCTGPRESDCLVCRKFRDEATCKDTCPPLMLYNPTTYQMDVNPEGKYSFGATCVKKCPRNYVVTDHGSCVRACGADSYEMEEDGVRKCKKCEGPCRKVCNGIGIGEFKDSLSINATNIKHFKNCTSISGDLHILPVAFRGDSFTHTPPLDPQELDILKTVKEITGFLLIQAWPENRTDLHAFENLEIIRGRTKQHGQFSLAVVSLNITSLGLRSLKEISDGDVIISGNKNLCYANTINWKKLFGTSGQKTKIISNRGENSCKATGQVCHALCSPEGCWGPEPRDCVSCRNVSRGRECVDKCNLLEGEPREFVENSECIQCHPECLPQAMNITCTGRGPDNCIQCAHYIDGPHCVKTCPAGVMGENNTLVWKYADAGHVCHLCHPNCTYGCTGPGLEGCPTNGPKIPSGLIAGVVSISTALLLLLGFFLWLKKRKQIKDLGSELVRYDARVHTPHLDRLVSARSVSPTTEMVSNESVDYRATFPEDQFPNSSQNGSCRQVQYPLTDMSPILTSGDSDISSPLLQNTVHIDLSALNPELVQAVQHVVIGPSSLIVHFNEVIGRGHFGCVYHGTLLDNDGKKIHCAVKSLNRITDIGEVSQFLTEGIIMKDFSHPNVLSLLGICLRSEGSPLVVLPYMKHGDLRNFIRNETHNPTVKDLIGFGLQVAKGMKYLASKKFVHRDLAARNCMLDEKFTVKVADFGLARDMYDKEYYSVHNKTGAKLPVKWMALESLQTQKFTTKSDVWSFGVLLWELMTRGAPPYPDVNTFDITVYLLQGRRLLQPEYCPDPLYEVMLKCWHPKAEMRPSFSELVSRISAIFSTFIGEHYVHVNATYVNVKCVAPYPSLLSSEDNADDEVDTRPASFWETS

| Compound | Met Kinase % Inhibition (P.130) |
| --- | --- |
| Cc1c(Br)cc(Br)c2c1C(=Cc1cc(F)ccc1F)C(=O)N2 [10737/H04] | 63.0% |
| Cc1c(Br)cc(Br)c2c1C(=Cc1cccc(F)c1F)C(=O)N2 [10737/H05] | 76.5% |
| COc1ccc(C=C2C(=O)Nc3c(Br)cc(Br)c(C)c32)cc1F [10737/H06] | 28.7% |
